This experiment in a line: Positive allosteric modulator activity at rat cortical membrane GABA-B receptor incubated for 60 min by [35S]GTPgammaS binding assay. In kind it is cell membranes, Cortex. (Binding of GTPγS marks nucleotide exchange on a G protein.)

For `Cc1cc(N2CCCCC2CCO)n2nc(-c3cccc(Cl)c3)cc2n1` (racemic), the pEC50 (usually the EC50 on a negative log10 scale, so that one unit is a factor of ten) amounted to 5.3.

As to `CSc1c(C)nc2cc(-c3ccc(Cl)cc3)nn2c1-c1cccc(NC(C)=O)c1`, the negative logarithm of the EC50 (pEC50) was found to be 7.75.

In the case of `CSc1c(C)nc2cc(-c3ccc(Cl)cc3)nn2c1N1CCC[C@@H](C(=O)O)C1`, the pEC50 stood at 7.15.

Take `Cc1nc(N2CCCCC2CCO)n2nc(-c3ccc(Cl)cc3)cc2n1` (racemic): the pEC50 was found to be 6.63.

`Cc1nc(N2CCCCC2CCO)c2sc(-c3ccc(Cl)cc3)cc2n1` (racemic): the pEC50 came to 6.59. This pEC50 and that of the compound before are within 0.2 log units of each other.

For `Cc1nc2cc(-c3ccc(Cl)cc3)nn2c(N2CCOCC2CCO)c1C#N` (racemic), the pEC50 amounted to 5.78.

`CC(=O)Nc1cccc(-c2c([S+](C)[O-])c(C)nc3cc(-c4ccc(Cl)cc4)nn23)c1` (stereo not given) displayed a pEC50 of 6.19.

Regarding `CC(=O)Nc1ccccc1-c1cc(C)nc2cc(-c3ccc(Cl)cc3)nn12`, the pEC50 is given as 6.17.

With `CC(=O)Nc1cccc(-c2cc(C)nc3cc(-c4ccc(Cl)cc4)nn23)c1`, the pEC50 is given as 6.6.

In turn, `Cc1cc(N2CCCC(C(=O)O)C2)n2nc(-c3ccc(Cl)cc3)cc2n1` (racemic) yielded a pEC50 of 5.32.

`Cc1cc(N2CCCCC2CCO)n2nc(-c3ccc(C#N)cc3)cc2n1` (racemic) showed a pEC50 of 5.29.

As for `CCOC(=O)C1=C(N2CCOCC2CCO)N2N=C(c3ccc(Cl)cc3)CC2N=C1C` (racemic), the pEC50 is 6.09.

The compound `CC(=O)Nc1cccc(-c2c(S(C)(=O)=O)c(C)nc3cc(-c4ccc(Cl)cc4)nn23)c1` displayed a pEC50 of 6.42.

With `COc1c(C)nc2cc(-c3ccc(Cl)cc3)nn2c1N1CCCC(C(=O)O)C1` (racemic), the pEC50 is 5.69.

Compound `COc1nn(-c2ccc(F)c(NC(C)=O)c2)c(=O)n(Cc2ccc(Cl)c(F)c2)c1=O` showed a pEC50 of 6.89.

The compound `Cc1nc(N2CCCCC2CCO)c2nc(-c3ccc(Cl)cc3)cn2n1` (racemic) registered a pEC50 of 6.24.

Regarding `CSc1c(C)nc2cc(-c3ccc(Cl)cc3)nn2c1N1CCCC(C(=O)O)C1` (racemic), the negative logarithm of the EC50 (pEC50) is 6.93.

Regarding `Cc1nc2ccc(I)cc2c(N2CCCCC2)c1S(C)(=O)=O`, the pEC50 was determined as 5.83.

The compound `Cc1cc(N2CCCCC2CCO)c2cc(-c3ccc(Cl)cc3)oc2n1` (racemic) returned a pEC50 of 5.92.

With `CSc1c(C)nc2cc(-c3ccc(Cl)cc3)nn2c1N1CCC[C@H](C(=O)O)C1`, the pEC50 amounted to 6.75.

As to `Cc1cc(N2CCCCC2CCO)n2nc(-c3ccc(F)cc3)cc2n1` (racemic), the pEC50 amounted to 5.93.

Take `Cc1cc(NC2CCCNC2=O)n2nc(-c3ccc(Cl)cc3)cc2n1` (racemic): the pEC50 turned out to be 5.4.

`COc1c(C)nc2cc(-c3ccc(Cl)cc3)nn2c1N1CCCCC1CCO` (racemic) showed a pEC50 of 7.05.

In turn, `Cc1cc(N2CCCCC2C(N)=O)n2nc(-c3ccc(Cl)cc3)cc2n1` (racemic) displayed a pEC50 of 6.55.

Consider `Cc1cc(NC2CCCCNC2=O)n2nc(-c3ccc(Cl)cc3)cc2n1` (racemic), for which the pEC50 worked out at 5.89.

`CC(C)(C)c1cc(C(C)(C)C)c2c(c1)C(O)(C(F)(F)F)C(=O)O2` (racemic) had a pEC50 of 6.78.

Compound `Cc1cc(N2CCCCC2CCO)n2nc(-c3ccccc3)cc2n1` (racemic) came in with a pEC50 of 5.91.

In turn, `Cc1cc(N2CCCCC2CCO)c2sc(-c3ccc(Cl)cc3)cc2n1` (racemic) yielded a negative logarithm of the EC50 (pEC50) of 6.22.

With `Cc1cc(N2CCCCC2CCO)n2nc(-c3ccc(Cl)cc3)cc2n1` (racemic), the pEC50 is reported as 6.21.

`Cc1ncc(-c2ccc(C(F)(F)F)cc2)c(N[C@@H]2C[C@H]3CC[C@@H]2C3)n1` had a pEC50 of 6.13. The pEC50 values of the last two compounds are within 0.2 log units of each other.

In turn, `CCOC(=O)C1CCCN(c2cc(C)nc3cc(-c4ccc(Cl)cc4)nn23)C1` (racemic) came in with a pEC50 of 5.85.

For the compound `Cc1cc(N2CCOCC2CCO)n2nc(-c3ccc(Cl)cc3)cc2n1` (racemic), the pEC50 worked out at 5.61.

On to `Cc1cc(N2CCCCC2C(=O)O)n2nc(-c3ccc(Cl)cc3)cc2n1` (racemic), for which the pEC50 was 5.97.

Compound `COc1ccc(-c2cc3nc(C)cc(N4CCCCC4CCO)n3n2)cc1` (racemic) had a pEC50 of 5.25.

For the compound `Cc1cc(N2CCCCC2CCO)n2nc(Cc3ccccc3)cc2n1` (racemic), the negative-log EC50 (pEC50) is 5.24.

These data come from ChEMBL document CHEMBL5344462, “Novel-Type GABAB PAMs: Structure-Activity Relationship in Light of the Protein Structure” (ACS Med Chem Lett, 2024).
